{"source": "patent USRE44962E1", "about": "“Genetically engineered plant cells and plants exhibiting resistance to glutamine synthetase inhibitors, DNA fragments and recombinants for use in the production of said cells and plants” (Bayer Cropscience N.V., priority 1986, dated 2014)", "test_system": "S. lividans", "assay_type": "cell-based", "settings": "relative to S. lividans without the plasmid", "data": [{"smiles": "CC(NC(=O)C(C)NC(=O)C(N)CCP(C)(=O)O)C(=O)O", "note": "(stereo not shown) [Bialaphos]", "values": [{"measurement": "resistance to Bialaphos of S. lividans strains containing pBG20", "value": "more than 500 times"}]}]}
